According to patent US8642613B2, “Treatment for leukemia and idiopathic aplastic anemia” (Sphingomonas Research Partners, L.P., priority 2008, dated 2014):

System: acute lymphocytic leukemia (ALL), Philadelphia chromosome positive, with bone marrow failure
Assay: Rifampicin treatment of a single patient with relapsed acute lymphocytic leukemia and end stage bone marrow failure
Type: in vivo, human
Experimental: The single leukemia patient studied, and reported here, was a person who presented with acute lymphocytic leukemia (ALL), Philadelphia chromosome positive, who was converted to remission with a stem cell transplant from a matching sibling. Within one year, the leukemia reverted to an active form, and they were treated with all anti-leukemic agents known, and these included several experimental agents from MD Anderson Hospital in Houston.
They developed diabetes associated with steroids, and right maxillary sinus infection with a species of Mucorales. They underwent debridement of their sinus, with removal of bone and tissue up to the floor of the […] orbit. The sense of smell had been lost during the mucor infection. Their condition worsened in the Houston hospital. They developed bone marrow failure, and was transferred by air ambulance in a bed to their home in the Chicago area with instructions for terminal hospice care. They were bedridden, unable to sit up, and appeared moribund.
The laboratory findings at that time included:
The present inventor, who is a physician, is a cousin of the patient. After informed consent, which included a description of the experience of the inventor, the patient was started on rifampicin (rifampin) 600 mg daily not within 2½ hours of meals. This treatment was not part of any protocol, but was a private request to the inventor.

[1] = single ALL patient, rifampicin 600 mg daily
[2] = single ALL patient, rifampicin 600 mg daily, time after start of treatment

What does the source list for Rifampicin?
white cell levels (mature leukocytes and lymphocytes) (approximately 5 weeks after treatment began, rifampicin 600 mg daily): continued at normal levels; platelet counts over time (FIG. 3) (patient presenting with acute lymphocytic leukemia treated with rifampicin): increase in platelet counts over time; white cell counts over time (FIG. 4) (same patient and time course as FIG. 3): increase in white cell counts; clinical condition (strength, sitting, standing, short walks) [1]: marked clinical improvement; platelet drop leading to temporary discontinuation (suspected platelet agglutination) [1]: transient drop in platelets; time until patient began to show bone marrow recovery [2]: ≤ 2 weeks; time until significant parameters of bone marrow remission had developed [2]: ≤ 6 weeks; platelets, level reached on treatment (single ALL patient, rifampicin 600 mg daily, 11K before treatment): 48 K
